Test results: patent publication US11559527B2 (priority 2017, dated 2023)

Key:
MCF7 cells [1] = assay: Label-free quantitative proteomics; type: cell-based, Human; conditions: MCF7, 10 μM
Description: Following protein digestion with trypsin, peptide fractions were processed on an LTQ-Orbitrap XL mass spectrometer. Those peptides identified were further analyzed to find proteomic changes between mDIVI-1-treated and vehicle-treated MCF7 cells, as described before. […] First, the inventors searched the proteomics datasets for changes in proteins involved in metabolism. […] That may possibly translate into a loss of antioxidant power, as the pentose phosphate pathway is a major source of NADPH.
LABEL-FREE SEMI-QUANTITATIVE PROTEOMICS: Chemicals and sample preparation. Formic acid, trifluoroacetic acid, ammonium formate (10 M), ammonium bicarbonate TCEP (Tris (2-carboxyethyl)phosphine hydrochloride), MMTS (Methyl methanethiosulfonate) and trypsin were all obtained from Sigma. HPLC gradient grade acetonitrile was obtained from Fisher Scientific. Briefly, 2×10^6 MCF7 cells were seeded in 15 cm plates until cells were attached. […] As control, vehicle-treated cells were processed in parallel. After 48 hours of treatment, cells were lysed in RIPA buffer (R0278, Sigma) and kept at 4° C. for 20 minutes with rotation. Lysates were cleared by centrifugation for 10 minutes at 10,000×g and supernatants were collected and kept frozen at −80° C.
PROTEIN DIGESTION: Lysate samples were thawed to room temperature and their concentrations equalized to 1 μg/μL (50 μL volume) with RIPA buffer, and further processed for trypsin digestion by sequential reduction of disulphide bonds with TCEP and alkylation with MMTS. Briefly, 1 μL benzonase (Novagen) was added to the 50 μL aliquot and placed on ice for 15 minutes. The sample was then taken to dryness using a SpeedVac, and resuspended in 22.5 μL trypsin reaction buffer (40 mM ammonium bicarbonate and 9% acetonitrile). One μL of 50 mM TCEP solution was added to each sample, mixed briefly and placed on a heater block at 60° C. for 60 minutes. After cooling to room temperature, 0.5 μL of 200 mM MMTS solution was added to each sample and allowed to react for 15 minutes. Trypsin was added in two waves to ensure efficient digestion of the sample. Firstly, 20 μg of sequencing grade trypsin was resuspended in 1800 μL of trypsin reaction buffer; 225 μL of this solution were added to each sample for digestion, and the reactions were left at 37° C. overnight with shaking (600 rpm). The following morning, a further aliquot of trypsin was added. Two ml of trypsin reaction buffer was added to 20 μL of sequencing grade trypsin; 250 μL of this solution were added to each of the digest samples from overnight, and the reactions were left at 37° C. for 4 hours with shaking (600 rpm). Thirty-five μL 10% formic acid were added to the 500 μL digest sample (0.7% final concentration of formic acid) to stop the digestion. The digested solution was diluted in 7.5 mL of acetonitrile containing 0.3% formic acid.
HILIC solid phase extraction (SPE) of peptides. PolyhydroxyethylA SPE 12 μm, 300 A, 300 mg cartridges (obtained from PolyLC) were used for the HILIC procedure. Prior to use, cartridges required an overnight soak in 50 mM formic acid followed by rinsing with water the following day. Cartridges were preconditioned with 2 mL of Buffer A (90% acetonitrile, 5 mM ammonium formate, pH 2.7) followed by 2 mL of Buffer B (5 mM ammonium formate, pH 2.7) and finally re-equilibrated with 10 mL Buffer A. The diluted samples were loaded onto the cartridges and washed with a further 10 mL Buffer A. Finally, peptides were eluted in 1 mL Buffer C (9 parts Buffer B plus 1 part Buffer A) and the samples dried on a Speedvac to remove organic solvent prior to LC-MS/MS analysis.
LC-MS/MS analysis. Lyophilised digests were resuspended in 50 μL of 0.1% TFA to give an approximate concentration of 1 μg/μL. One μL injection volumes were used throughout resulting in an on-column peptide loading of approximately 1 μg per injection. Analysis was performed in quintuplicate for each sample. […]

MCF7 cells [2] = assay: Bradford assay (protein content as indicator of cell viability); type: cell-based, Human; conditions: 2 days
Method: The inventors sought to evaluate whether mDIVI-1-induced inhibition of DRP1 has repercussion on the viability of MCF7 cells. […] Similar results were obtained using the Bradford assay, which measures protein content, as an indicator of cell viability.
EXTRACELLULAR FLUX […] AND BRADFORD ASSAY: Extracellular acidification rate (ECAR) and oxygen consumption rate (OCR) were measured in a XF96 Extracellular Flux Analyzer (Seahorse Biosciences). Briefly, 1×10^4 MCF7 cells per well were seeded in XF96 plates and incubated with complete medium. When cells were attached, mDIVI-1 and vehicle treatments were added. Six replicates were run for each condition. After 48 hours, un-buffered DMEM XF medium supplemented with 2 mM glutamine (pH 7.4) was added to the cells, and placed in a 37° C. CO2-free incubator for 1 hour. Ten mM glucose, 1 μM oligomycin and 100 mM 2-deoxyglucose (2-DG) were injected into the media at different time points and ECAR was measured. Likewise, ECAR and OCR were quantified using un-buffered DMEM XF medium supplemented with 2 mM glutamine, 2 mM sodium pyruvate and 10 mM glucose. One μM oligomycin, 0.9 μM FCCP and 1 μM rotenone and antimycin A were injected into the media at different time points and OCR and ECAR were measured. […] All parameters were calculated according to manufacturer.

SMILES: COc1cc(-n2c(S)nc3ccccc3c2=O)c(Cl)cc1Cl [mDIVI-1, 3-(2,4-Dichloro-5-methoxyphenyl)-2-sulfanyl-4(3H)-quinazolinone]
- Change in expression: Hexokinase 1 (HK1) (MCF7 cells [1]; Glycolysis, 48 hours): ↓Infinite
- BMP7 expression change (proteomics) (MCF7 cells [1]; 48 hours vs vehicle): −47.17
- CELSR2 expression change (proteomics) (MCF7 cells [1]; 48 hours vs vehicle): −1.6
- EPCAM expression change (proteomics) (MCF7 cells [1]; 48 hours vs vehicle): −1.58
- EphA2 expression change (proteomics) (MCF7 cells [1]; 48 hours vs vehicle): −1.74
- F11 receptor expression change (proteomics) (MCF7 cells [1]; 48 hours vs vehicle): −1.70
- LAMP1 expression change, upregulated (proteomics) (MCF7 cells [1]; 48 hours vs vehicle): 2.83
- STAT3 expression change (proteomics) (MCF7 cells [1]; 48 hours vs vehicle): −1.83
- ZO-1 expression change (proteomics) (MCF7 cells [1]; 48 hours vs vehicle): −1.62
- collagen type IV upregulation (proteomics) (MCF7 cells [1]; 48 hours vs vehicle): 1.9 fold
- desmoplakin expression change (proteomics) (MCF7 cells [1]; 48 hours vs vehicle): −4.58
- junction plakoglobin expression change (proteomics) (MCF7 cells [1]; 48 hours vs vehicle): −1.65
- keratin 8 expression change (proteomics) (MCF7 cells [1]; 48 hours vs vehicle): −5.24
- keratin 18 expression change (proteomics) (MCF7 cells [1]; 48 hours vs vehicle): −12.21
- MCF7 protein content (MCF7 cells [2]; 20 μM): significantly reduced
- MCF7 protein content (MCF7 cells [2]; 50 μM): significantly reduced
